# Experimental data published in patent publication US9428551B2, “Antimicrobial peptides” (priority 2009, dated 2016).
# How the values were obtained:
# [1] = test system: clinical biofilm forming strains of CNS Staphylococci species associated with prosthetic joint infections; experiment: passaging in sub-inhibitory concentrations; format: cell-based; settings: for MIC after passaging: sub-inhibitory concentrations
# S. epidermidis = experiment: MIC by micro-dilution (BSAC); format: cell-based;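 further: MIC in µg/ml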
# Propionibacterium acnes = experiment: spot on lawn method; format: cell-based; settings: purified preparations of NI01, spot on lawn method
# Bacillus cereus = experiment: MIC by micro-dilution (BSAC); format: cell-based
# S. epidermidis 156 = experiment: viability, optical density and Gram staining after addition of peptide; format: cell-based
# S. epidermidis s42 [2] = experiment: potassium release, K+ sensitive fluorescent dye PBFI; format: cell-based; settings: highest concentration, 10×MIC
# Text: (§1) Results are expressed as % of positive control and that NI01 causes concentration dependent release of potassium from indicator cells with 100% being released at the highest concentration of NI01 assessed (10×MIC).
# S. saprophyticus = experiment: MIC by micro-dilution (BSAC); format: cell-based
# Enterococcus faecalis = experiment: MIC by micro-dilution (BSAC); format: cell-based
# S. aureus 1195 = experiment: MIC by micro-dilution (BSAC); format: cell-based
# pH stability = format: physicochemical
# [3] = test system: Vancomycin resistant Enterococcus faecalis; experiment: MIC by micro-dilution (BSAC); format: cell-based
# MRSA (EMRSA 15) = experiment: MIC by micro-dilution (BSAC); format: cell-based;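 further: MIC in µg/ml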
# S. warneri = experiment: MIC by micro-dilution (BSAC); format: cell-based
# S. hominis = experiment: MIC by micro-dilution (BSAC); format: cell-based
# [4] = test system: reference strain RP62a, gentamicin resistant clinical isolate 53 and gentamicin sensitive isolate 156; experiment: single-step (spontaneous) mutation tests; format: cell-based, S. epidermidis; settings: two, four and eight times the MIC; strains RP62a, 53 and 156; no evidence of mutation
# S. epidermidis s42 [5] = experiment: ATP release; format: cell-based; settings: 10×MIC
# [6] = test system: Staphylococcal isolates associated with joint or tissue infections; experiment: deferred antagonism method, inhibition of clinical Staphylococcal isolates; format: cell-based, Staphylococci; set-up: key to Inhibition caused by NI01: NI indicates no inhibition; 1+: on a score of 1-3; 2+: on a score of 1-3; 3+: on a score of 1-3
# strain 156 biofilm = experiment: biofilm formation on peptide-coated polyethylene beads; format: cell-based, Staphylococcus epidermidis; settings: beads submerged in semi-pure peptide 2 hours, inoculum 3×10^8 cfu/ml of strain 156, p=0.000
# S. epidermidis s42 [7] = experiment: membrane potential, DiSC3(5) assay; format: cell-based; settings: all concentrations assessed; levels exceeded positive control nisin 10×MIC
# Text: as §1
# In summary, mode of action studies, using DiSC3(5) [3,3′-Dipropylthiadicarbocyanine iodide] assays, indicate that NI01 depolarises the membrane (FIG. 12) of the a Staphylococcus epidermidis strain resulting in loss of potassium (FIG. 13) and ATP (FIG. 14).
# [8] = Strain 11, gentamicin and methicillin resistant clinical isolate
# [9] = Strain 12, gentamicin resistant clinical isolate
substance,measurement,setting,value
"peptide NI01: antimicrobial peptide (bacteriocin, SEQ ID NO:3) obtained from a Staphylococcal culture; C terminal sequence QSFEWIYKQIKKLWA (MAAFMKLIQFLATKGQKYVSLAWKHKGTILKWINAGQSFEWIYKQIKKLWA; NOI01 polypeptide)",MIC before passaging,[1]; [8],7800 µg/mL
same,MIC after passaging,[1]; [8],15600 µg/mL
same,MIC before passaging,[1]; [9],3900 µg/mL
same,MIC after passaging,[1]; [9],7800 µg/mL
same,change in MIC after passaging,[1]; all of the other strains tested (of twelve),no change
same,MIC,S. epidermidis; S. epidermidis RP62a,2 to 4 µg/mL
same,MIC,S. epidermidis; S. epidermidis s1,1 µg/mL
same,MIC,S. epidermidis; S. epidermidis s2,4 µg/mL
same,MIC,S. epidermidis; S. epidermidis s37,2 µg/mL
same,MIC,S. epidermidis; S. epidermidis s42,2 µg/mL
same,MIC,S. epidermidis; S. epidermidis s44,4 µg/mL
same,MIC,S. epidermidis; S. epidermidis s60,2 µg/mL
same,MIC,S. epidermidis; S. epidermidis s93,2 µg/mL
same,MIC,S. epidermidis; S. epidermidis s156,0.0625 µg/mL
same,activity against Propionibacterium acnes,Propionibacterium acnes,activity
same,MIC,Bacillus cereus,<0.125 µg/mL
same,stained cells per field of view (Gram stain) following addition of peptide,S. epidermidis 156; at least 150 small cocci per field prior to addition,less than 20 cells per field of view
same,type of activity against the target bacterium,S. epidermidis 156; from cfu count and optical density,"bactericidal, but non-lytic"
same,cfu count after addition of peptide,"S. epidermidis 156; peptide added at T=30, decrease not as pronounced in optical density",rapid decrease
same,haemolysis,haemolysis,not haemolytic
same,cells that looked apoptotic,vero cells,10-20%
same,damage to vero cells,vero cells,No significant damage
same,potassium release,S. epidermidis s42 [2],100 % of positive control
same,MIC,S. saprophyticus,0.5 to 1 µg/mL
same,MIC,Enterococcus faecalis,1 µg/mL
same,MIC,S. aureus 1195,2 µg/mL
same,activity lost,pH stability; acidic pH 2,about 5%
same,activity lost,pH stability; alkaline pH 10,12%
same,activity retained,pH stability; between pH 4-8,100%
same,MIC,[3]; Vancomycin resistant Enterococcus faecalis 1,1 µg/mL
same,MIC,[3]; Vancomycin resistant Enterococcus faecalis 2,1 µg/mL
same,MIC,[3]; Vancomycin resistant Enterococcus faecalis 3,1 µg/mL
same,MIC,[3]; Vancomycin resistant Enterococcus faecalis 4,1 to 2 µg/mL
same,MIC,[3]; Vancomycin resistant Enterococcus faecalis 5,0.5 to 1 µg/mL
same,MIC,[3]; Vancomycin resistant Enterococcus faecalis 6,0.5 µg/mL
same,MIC,MRSA (EMRSA 15); MRSA s37 (EMRSA 15),1 to 2 µg/mL
same,MIC,MRSA (EMRSA 15); MRSA s41 (EMRSA 15),1 to 2 µg/mL
same,MIC,MRSA (EMRSA 15); MRSA s71 (EMRSA 15),2 µg/mL
same,MIC,S. warneri,1 µg/mL
same,MIC,S. hominis,1 µg/mL
same,mutation (single-step mutation tests),[4],< 1.5×10^8 cfu/ml
same,ATP released,S. epidermidis s42 [5],> 65 % of positive control
same,Inhibition caused by NI01,"[6]; isolate 5133, Tissue (acetabulum), resistance: flu",2+
same,Inhibition caused by NI01,"[6]; isolate S1, Tissue, resistance: meth, pen, ery, amp, flu, gen, trim, cip",2+
same,Inhibition caused by NI01,"[6]; isolate S2, Joint fluid, resistance: pen, ery, amp, flu, gen, trim, cip",2+
same,Inhibition caused by NI01,"[6]; isolate S4, Tissue, resistance: meth, flu, gen, trim",3+
same,Inhibition caused by NI01,"[6]; isolate S5, Tissue, resistance: met",3+
same,Inhibition caused by NI01,"[6]; isolate S6, Femoral canal, resistance: flu, ery, gen, rif, cip",1+
same,Inhibition caused by NI01,"[6]; isolate S7, Femoral canal, sensitive",1+
same,Inhibition caused by NI01,"[6]; isolate S8, Tissue, resistance: flu, ery, gen, rif, cip",1+
same,Inhibition caused by NI01,"[6]; isolate S9, Tissue, resistance: flu, ery, gen, rif, cip",3+
same,Inhibition caused by NI01,"[6]; isolate S10, Tissue, resistance: flu, ery, gen, rif, cip",1+
same,Inhibition caused by NI01,"[6]; isolate S11, Tissue, resistance: flu, ery, gen, rif, cip",2+
same,Inhibition caused by NI01,"[6]; isolate S12, Tissue, resistance: flu, ery, rif, cip",1+
same,Inhibition caused by NI01,"[6]; isolate S13, Swab, resistance: flu, ery, gen, rif, cip",1+
same,Inhibition caused by NI01,"[6]; isolate S25, Swab (left hip joint), resistance: meth, gen",2+
same,Inhibition caused by NI01,"[6]; isolate S28, Tissue (femoral canal), resistance: meth, gen",3+
same,Inhibition caused by NI01,"[6]; isolate S30, Tissue (left capsule), resistance: meth",3+
same,Inhibition caused by NI01,"[6]; isolate S31, Swab (joint), sensitive",2+
same,Inhibition caused by NI01,"[6]; isolate S37, Tissue (knee), sensitive",2+
same,Inhibition caused by NI01,"[6]; isolate S39, Tissue (right knee), resistance: meth, flu, fus, cip",1+
same,Inhibition caused by NI01,"[6]; isolate S40, Tissue (right knee), resistance: meth, flu, ery, fus, clin, cip",1+
same,Inhibition caused by NI01,"[6]; isolate S41, Tissue (femoral canal), resistance: meth, flu, fus, cip",1+
same,Inhibition caused by NI01,"[6]; isolate S42, Tissue (right knee), resistance: meth, flu, fus, cip",NI
same,Inhibition caused by NI01,"[6]; isolate S43, Swab (right hip joint), resistance: meth, flu, ery, fus, clin, cip",NI
same,Inhibition caused by NI01,"[6]; isolate S44, Swab (right hip joint), resistance: meth, flu, ery",NI
same,Inhibition caused by NI01,"[6]; isolate S46, Swab (right hip joint), resistance: meth, flu, gen, fus, cip",NI
same,Inhibition caused by NI01,"[6]; isolate S47, Swab (tibia), resistance: meth, flu, ery, gen, fus, cip",NI
same,Inhibition caused by NI01,"[6]; isolate S48, Tissue (left knee), resistance: meth, flu, ery, gen, fus, cip",1+
same,Inhibition caused by NI01,"[6]; isolate S49, Tissue (left knee), resistance: meth, flu, ery, gen, fus, cip",2+
same,Inhibition caused by NI01,"[6]; isolate S52, Tissue (right hip joint), resistance: gen, cip",2+
same,Inhibition caused by NI01,"[6]; isolate S53, Swab (femur), resistance: gen, cip, fus",2+
same,Inhibition caused by NI01,"[6]; isolate S56, Tissue (right hip joint), sensitive",2+
same,Inhibition caused by NI01,"[6]; isolate S60, Tissue (femur), resistance: gen, trim",NI
same,Inhibition caused by NI01,"[6]; isolate S71, Swab (femur), resistance: flu",2+
same,Inhibition caused by NI01,"[6]; isolate S78, Tissue (right elbow), resistance: flu, ery",1+
same,Inhibition caused by NI01,"[6]; isolate S79, Pus (right elbow), resistance: meth, flu, ery",1+
same,Inhibition caused by NI01,"[6]; isolate S80, Tissue (triceps), resistance: flu, ery",1+
same,Inhibition caused by NI01,"[6]; isolate S81, Pus (right elbow), resistance: flu, ery",1+
same,Inhibition caused by NI01,"[6]; isolate S82, Tissue (right elbow), resistance: flu, ery",1+
same,Inhibition caused by NI01,"[6]; isolate S83, Tissue (next to bone), resistance: flu, ery",1+
same,Inhibition caused by NI01,"[6]; isolate S85, Tissue (left elbow), resistance: meth, ery",1+
same,Inhibition caused by NI01,"[6]; isolate S86, Swab (right elbow), sensitive",2+
same,Inhibition caused by NI01,"[6]; isolate S88, Swab (left hip), sensitive",1+
same,Inhibition caused by NI01,"[6]; isolate S89, Tissue (right elbow), resistance: meth, flu, ery",1+
same,Inhibition caused by NI01,"[6]; isolate S90, Ulcer, resistance: flu, ery",2+
same,Inhibition caused by NI01,"[6]; isolate S91, Swab (right acetabulum), resistance: flu",2+
same,Inhibition caused by NI01,"[6]; isolate S92, Swab (femur), resistance: flu",1+
same,Inhibition caused by NI01,"[6]; isolate S93, Tissue (wound), resistance: flu, ery, gen, fus",NI
same,Inhibition caused by NI01,"[6]; isolate S94, Tissue (right femur), resistance: flu",3+
same,Inhibition caused by NI01,"[6]; isolate S95, Tissue (right femur), resistance: flu, trim",3+
same,Inhibition caused by NI01,"[6]; isolate S96, Tissue (right femur), resistance: flu",1+
same,Inhibition caused by NI01,"[6]; isolate S97, Tissue (acetabulum), resistance: flu",3+
same,Inhibition caused by NI01,"[6]; isolate S106, Neck of femur, resistance: ery, fus",3+
same,Inhibition caused by NI01,"[6]; isolate S127, Tissue (screw holes), resistance: flu",1+
same,Inhibition caused by NI01,"[6]; isolate S128, Tissue (under plate), resistance: meth, flu",1+
same,Inhibition caused by NI01,"[6]; isolate S156, Tissue (acetabulum), resistance: ery, fus",3+
same,Inhibition caused by NI01,"[6]; isolate S159, Swab (right thigh), resistance: meth, flu, ery",1+
same,Inhibition caused by NI01,"[6]; isolate S160, Swab (right hip), resistance: meth, flu, gen",2+
same,Inhibition caused by NI01,"[6]; isolate S161, Swab (right hip sinus), resistance: flu, ery, gen, fus, cip",2+
same,Inhibition caused by NI01,"[6]; isolate S163, Tissue (right hip), resistance: flu, ery, gen, fus, cip",1+
same,Inhibition caused by NI01,"[6]; isolate S164, Tissue (right hip), resistance: ery, fus, amp, clin",NI
same,"inhibitory effect, score","[6]; isolate Staphylococcus epidermis 156, biofilm forming, from infected acetabulum tissue, over a 100 hour period (FIG. 5)",+3
same,clinical biofilm forming isolates of Staphylococci inhibited,"[6]; isolates associated with joint and/or tissue infections, summary of Table 1",58 out of the 60
same,"clinical biofilm forming isolates of Staphylococci inhibited, percent",[6]; summary of Table 1,91%
same,reduction of biofilm on coated versus uncoated polyethylene beads,strain 156 biofilm,2.85 log units
same,effect on membrane potential,S. epidermidis s42 [7],rapidly depolarized the membrane
